Experimental data reported in patent US12454687B2, “Functional genomics using CRISPR-Cas systems, compositions, methods, knock out libraries and applications thereof” (The Broad Institute, Inc., priority 2012, dated 2025).

Tests used:
human EMX1 locus [1] = assay: double nicking SURVEYOR assay, Cas9 nickase with pairs of guide RNAs, HEK293FT cells; format: cell-based; conditions: sgRNA pairs generating 5′ and 3′ overhangs, offset range from −278 to +58 bp
Description: Applicants transfected cells using Lipofectamine 2000, and transfected cells were harvested 48 or 72 hours after transfections. Double nicking-induced NHEJ were detected using the SURVEYOR nuclease assay as described previously herein (FIGS. 51, 52 and 53).

human EMX1 locus [2] = assay: Surveyor assay for genome modification, HEK 293 FT cells; format: cell-based; conditions: co-expression with EMX1-targeting chimeric crRNA, n=3
Description: Cells were transfected using Lipofectamine 2000 (Life Technologies) following the manufacturer's recommended protocol. For each well of a 24-well plate a total of 800 ng of plasmids were used.
Genomic DNA was extracted using the QuickExtract DNA extraction kit (Epicentre) following the manufacturer's protocol. […] Extracted genomic DNA was immediately processed or stored at −20° C.
The genomic region surrounding a CRISPR target site for each gene was PCR amplified, and products were purified using QiaQuick Spin Column (Qiagen) following manufacturer's protocol. A total of 400 ng of the purified PCR products were mixed with 2 μl 10× Taq polymerase PCR buffer (Enzymatics) and ultrapure water to a final volume of 20 μl, and subjected to a re-annealing process to enable heteroduplex formation: 95° C. for 10 min, 95° C. to 85° C. ramping at −2° C./s, 85° C. to 25° C. at −0.25° C./s, and 25° C. hold for 1 minute. After re-annealing, products were treated with Surveyor nuclease and Surveyor enhancer S (Transgenomics) following the manufacturer's recommended protocol, and analyzed on 4-20% Novex TBE poly-acrylamide gels (Life Technologies). Gels were stained with SYBR Gold DNA stain (Life Technologies) for 30 minutes and imaged with a Gel Doc gel imaging system (Bio-rad). Quantification was based on relative band intensities, as a measure of the fraction of cleaved DNA.

human EMX1 locus [3] = assay: sequencing of amplicons containing the target locus; format: cell-based; conditions: sequencing of 327 amplicons
human EMX1 locus [4] = assay: restriction fragment length polymorphism assay for homologous recombination; format: cell-based; conditions: HEK 293 FT, HindIII digest
Description: The target genomic region was PCR amplified using primers outside the homology arms of the homologous recombination (HR) template. PCR products were separated on a 1% agarose gel and extracted with MinElute GelExtraction Kit (Qiagen). Purified products were digested with HindIII (Fermentas) and analyzed on a 6% Novex TBE poly-acrylamide gel (Life Technologies).

EMX1 locus = assay: HDR with ssODNs and targeting vector in HUES9 cells; format: cell-based, human
Excerpt: (a) Either a targeting plasmid or an ssODN (sense or antisense) with homology arms can be used to edit the sequence at a target genomic locus cleaved by Cas9 (red triangle). To assay the efficiency of HDR, we introduced a HindIII site into the target locus, which was PCR-amplified with primers that anneal outside of the region of homology. […] (b) ssODNs, oriented in either the sense or the antisense (s or a) direction relative to the locus of interest, can be used in combination with Cas9 to achieve efficient HDR-mediated editing at the target locus. A minimal homology region of 40 bp, and preferably 90 bp, is recommended on either side of the modification. […] Each ssODN contains homology arms of 90 bp flanking a 12-bp insertion of two restriction sites.
114| In the HDR example, a HindIII restriction site is inserted into the EMX1 gene. These are detected by a restriction digest of the PCR amplicon:
iv. The cleavage products are imaged and quantified as described above in the SURVEYOR assay section. HDR efficiency is estimated by the formula: (b+c)/(a+b+c), where a is the integrated intensity for the undigested HDR PCR product, and b and c are the integrated intensities for the HindIII-cut fragments.
CRISPR-Cas may be easily multiplexed to facilitate simultaneous modification of several genes and mediate chromosomal microdeletions at high efficiencies. […]

[5] = tested on: Exon 51 of the dystrophin gene; conditions: across 48 weeks, cited from earlier work

H840A: SpCas9 with mutation H840A
indel formation with sgRNA pairs (human EMX1 locus [1]): unable to observe indel formation

SpCas9n: SpCas9 with aspartate-to-alanine substitution (D10A) in the RuvC I catalytic domain, a nickase
indels at the EMX1 protospacer target (human EMX1 locus [2]): does not generate indels | indels detected by sequencing (human EMX1 locus [3]): did not detect any indels | integration of the HR template into the EMX1 locus (human EMX1 locus [4]): catalyzed integration of the HR template | HDR detection (EMX1 locus): not been able to detect HDR

eteplirsen
functional benefit [5]: significant functional benefit | dystrophin positive fibers ([5]; average, compared to baseline): 47%
